The values below come from US12358914B2, “Preparation method and use of pyrazole compound containing 1-(3,4-dimethoxyphenyl)-β-carboline unit” (NANTONG UNIVERSITY, priority 2020, dated 2025).

The subject of the test is Human gastric cancer cell HGC-27. Description: In-vitro anti-tumor activity test by MTT method. Type of test: cell-based. The settings on record: HGC-27 cells, 24 hours incubation with compound, OD 570 nm. The protocol:
Anti-Tumor Activity Test of Compounds
The in-vitro anti-tumor activity of the compounds was tested by tetramethylazoazole colorimetric (MTT) method. Human gastric cancer cell HGC-27 was used as a test cell. 5-fluorouracil (5-FU) was selected as the positive control drug. Human gastric cancer cell HGC-27 in the exponential growth phase was made into a cell suspension with 4×10^3 cells/mL, inoculated in a 96-well plate, and cultured in a CO2 incubator for 36 hours. The test solution (10 μL) of the compound to be tested was added into the test wells, with parallel wells being set for each concentration. The same amount of DMSO was used as a blank control. The plate was incubated in a CO2 incubator for 24 hours, then the supernatant was discarded, and 10 μL of 5% MTT was added to each well. Then the plate was incubated for 4 hours, and the supernatant was sucked and discarded. Subsequently, 100 μL of DMSO was added to each well, and the plate was shaken in a shaker for 20 minutes. The OD value was measured with a microplate reader at a wavelength of 570 nm, and the cell inhibition rate was calculated. Cell inhibition rate=(OD value of negative control group−OD value of tested substance group)/OD value of negative control group×100%. The IC50 value of each compound was calculated by the probability unit weighted regression method.
(In general: Formazan colour is commonly taken as a measure of viable cells.)
A word on the IC50: it is the point on the concentration scale where inhibition reaches its midpoint. As for `COc1ccc(Oc2c(/C=N/NC(=O)c3cc4c([nH]c5ccccc54)c(-c4ccc(OC)c(OC)c4)n3)c(C)nn2C)cc1` [Ib], the IC50 amounted to 1.89 µM.
The figure for `COc1ccc(-c2nc(C(=O)N/N=C/c3c(C)nn(C)c3Oc3ccc(F)cc3)cc3c2[nH]c2ccccc23)cc1OC` [Ic] is 7.03 µM; for `O=c1[nH]cc(F)c(=O)[nH]1` [Compound 5-FU, 5-fluorouracil, reference compound] it is 34.1 µM.
The figure for `COc1ccc(-c2nc(C(=O)N/N=C/c3c(C)nn(C)c3Oc3ccc(F)cc3F)cc3c2[nH]c2ccccc23)cc1OC` [Id] is 1.27 µM.
The figure for `COc1ccc(-c2nc(C(=O)N/N=C/c3c(C)nn(C)c3Oc3ccc(Cl)cc3)cc3c2[nH]c2ccccc23)cc1OC` [Ia] is 10.1 µM.
